Assays:
rat mammary carcinomas = settings: prior art; compared with ovariectomy; cited from earlier work
[1] = test system: membrane receptors of human prostate cancer; test: Affinity to membrane receptors of human prostate cancer using 125I-labeled [D-Trp6]LHRH; type: binding
Experimental: (§1) This is determined by using labelled LHRH and [D-Trp^6 ]LHRH. The assay is carried out similarly to that described by T. Kadar et al., Proc. Natl. Acad. Sci. USA, 85, 890-894 (1988).
(§2) *Affinity constants of the peptides for the first receptor class, Ka
(§3) (i.e. for high affinity binding sites) and for the second receptor class,
(§4) Ka2 (i.e. for low affinity binding sites) of human prostate cancer
(§5) and rat Dunning tumor, respectively, as determined by using ^125
(§6) Ilabeled [DTrp^6 ]LHRH.

[2] = test system: membrane receptors of rat Dunning tumor; test: Affinity to membrane receptors of rat Dunning tumor using 125I-labeled [D-Trp6]LHRH; type: binding
Experimental: as §1, §2, §3, §4, §5, §6

LHRH = settings: prior art; cited from earlier work
[3] = target: T1, membrane receptors of pituitary of male rats (Rattus norvegicus, UniProt P30969); test: Binding affinity for membrane receptors of rat pituitary using 125I-labeled [D-Trp6]LHRH; settings: Table 2, high affinity binding sites
T1 construct: from tissue; host or cells: pituitary of male rats (membranes)
T1 sequence (P30969 1-327): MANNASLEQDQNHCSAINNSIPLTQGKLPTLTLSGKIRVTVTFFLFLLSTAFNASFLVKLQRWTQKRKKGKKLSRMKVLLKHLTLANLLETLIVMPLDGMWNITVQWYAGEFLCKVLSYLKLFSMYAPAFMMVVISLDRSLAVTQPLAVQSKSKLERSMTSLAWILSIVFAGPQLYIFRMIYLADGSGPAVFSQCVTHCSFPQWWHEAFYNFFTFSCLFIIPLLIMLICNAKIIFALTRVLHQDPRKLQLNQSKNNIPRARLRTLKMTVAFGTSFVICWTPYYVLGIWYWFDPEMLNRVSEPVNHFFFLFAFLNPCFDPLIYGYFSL
Experimental: as §1
(§7) Table 2 presents the antiovulatory activity of the claimed compounds having LHRH-inhibiting properties. The inhibitory action was determined in vivo, in 4-day cycling rats as described [A. Corbin and C. W. Beattie, Endocr. Res. Commun., 2, 1-23 (1975)]. Affinities of the claimed compounds to membrane receptors of rat pituitary and human breast cancer cells are also given in Tables 1 and 2 as determined by using [^125 I,D-Trp^6 ]LHRH.
(§8) **Affinity constants of the peptides for the first receptor class (i.e.
(§9) for high affinity binding sites) of pituitary of male rats and human
(§10) breast cancer cells, respectively, as determined by using ^125
as §6
(§11) breast cancer cells, respectively, were determined by using ^125

[4] = target: T2, membrane receptors of human breast cancer cells (Homo sapiens, UniProt P30968); test: Binding affinity for membrane receptors of human breast cancer cells using 125I-labeled [D-Trp6]LHRH; settings: Table 2, high affinity binding sites
T2 construct: endogenous in cells; host or cells: human breast cancer cells (membranes)
T2 sequence (P30968 1-328): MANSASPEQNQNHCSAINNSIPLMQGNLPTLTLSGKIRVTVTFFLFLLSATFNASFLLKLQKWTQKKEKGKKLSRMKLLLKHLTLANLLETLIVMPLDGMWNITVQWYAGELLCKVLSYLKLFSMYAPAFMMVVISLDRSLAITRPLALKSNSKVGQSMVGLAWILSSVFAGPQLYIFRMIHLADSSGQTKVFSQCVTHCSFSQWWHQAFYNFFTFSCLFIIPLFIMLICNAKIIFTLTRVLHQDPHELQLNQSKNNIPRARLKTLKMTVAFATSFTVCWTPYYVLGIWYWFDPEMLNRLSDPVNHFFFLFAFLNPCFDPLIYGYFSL
Experimental: as §1, §7, §8, §9, §10, §6, §11

4-day cycling rats = test: In vivo antiovulatory activity in 4-day cycling rats; design: species or system rat
Experimental: This activity of the peptides is determined in 4-day-cycling rats as described [A. Corbin and C. W. Beattie, Endocr. Res. Commun., 2, 1-23 (1975)].
as §7
*LHRH-inhibiting potencies were assayed in 4day cyclic rats.

[5] = test system: human breast carcinoma cells; settings: prior art; cited from earlier work
[6] = second receptor class (low affinity binding sites)
[7] = first receptor class (high affinity binding sites)

| Compound | activity of Chlorambucil-linked LHRH agonist / antagonist analogue (in words) (LHRH) | Binding affinity, Ka1, for membrane receptors of pituitary [3] [nM⁻¹] | Binding affinity, Ka1, for membrane receptors of cancer cells [4] [nM⁻¹] | other results |
| --- | --- | --- | --- | --- |
| CC(C)C[C@H](NC(=O)[C@@H](COC(C)(C)C)NC(=O)[C@H](Cc1ccc(O)cc1)NC(=O)[C@H](CO)NC(=O)[C@H](Cc1c[nH]c2ccccc12)NC(=O)[C@H](Cc1cnc[nH]1)NC(=O)[C@@H]1CCC(=O)N1)C(=O)N[C@@H](CCCNC(=N)N)C(=O)N1CCC[C@H]1C(=O)NNC(N)=O [Example A4] | – | – | – | effectiveness in treatment of rat mammary carcinomas (in words) (rat mammary carcinomas): as effective as ovariectomy |
| Ac-D-Nal(2)-D-Phe(4Cl)-D-Trp-Ser-Arg-D-Mel-Leu-Arg-Pro-D-Ala-NH2 [IIA] | – | – | – | Human prostate cancer Ka2 [1, 6]: 0.97 µM⁻¹; Dunning tumor Ka2 [2, 6]: 25.1 µM⁻¹ |
| [D-Lys(Chlorambucil)^6 ] LHRH | moderate activities | – | – | – |
| Ac-D-Nal(2)-D-Phe(4Cl)-D-Trp-Ser-Arg-D-Lys[(Cu^++)(SAL)2 (DL-A2 pr)]-Leu-Arg-Pro-D-Ala-NH2 [XII] | – | 9.183 | 4.951 | % Blockade of ovulation (4-day cycling rats; Dose 3 μg/rat): 20% |
| CCNC(=O)[C@@H]1CCCN1C(=O)[C@H](CCCNC(=N)N)NC(=O)[C@H](CC(C)C)NC(=O)[C@@H](COC(C)(C)C)NC(=O)[C@H](Cc1ccc(O)cc1)NC(=O)[C@H](CO)NC(=O)[C@H](Cc1c[nH]c2ccccc12)NC(=O)[C@H](Cc1cnc[nH]1)NC(=O)[C@@H]1CCC(=O)N1 [Example A3] | – | – | – | growth of human breast carcinoma cells containing LHRH binding sites (in words) [5]: inhibited |
| [Chlorambucil-D-Leu^2,D-Leu^3,D-Ala^6 ]LHRH (2-10) | moderate activities | – | – | – |
| [Chlorambucil-D-Phe^1,D-Phe^2,D-Trp^3,6 ]LHRH | practically inactive | – | – | – |
| CC(C)C[C@H](NC(=O)[C@@H](Cc1c[nH]c2ccccc12)NC(=O)[C@H](Cc1ccc(O)cc1)NC(=O)[C@H](CO)NC(=O)[C@H](Cc1c[nH]c2ccccc12)NC(=O)[C@H](Cc1c[nH]cn1)NC(=O)[C@@H]1CCC(=O)N1)C(=O)N[C@@H](CCCNC(=N)N)C(=O)N1CCC[C@H]1C(=O)NCC(N)=O [[D-Trp^6]-LHRH, [D-Trp^6]LHRH, reference compound] | – | – | – | Human prostate cancer Ka1 [1, 7]: 0.04 nM⁻¹; Dunning tumor Ka1 [2, 7]: 1.87 nM⁻¹ |
| Ac-D-Nal(2)-D-Phe(4Cl)-D-Pal(3)-Ser-Arg-D-Lys[(Ni^++)(SAL)2 (DL-A2 pr)]-Leu-Arg-Pro-D-Ala-NH2 [XIII] | – | 1.821 | 0.878 | % Blockade of ovulation (4-day cycling rats; rat, in vivo): 100 |
| Ac-D-Nal(2)-D-Phe(4Cl)-D-Trp-Ser-Arg-D-Lys[(Ni^++)(SAL)2 (DL-A2 pr)]-Leu-Arg-Pro-D-Ala-NH2 [Example XV] | – | 8.676 | 4.418 | % Blockade of ovulation (4-day cycling rats; Dose 3 μg/rat): 20% |

Reference: patent US5258492A, “LHRH analogues with cytotoxic moieties at the sixth position” (The Administrators of the Tulane Educational Fund, priority 1991, dated 1993)
